Laboratory results as given in publication PMC12649549, “Sequence Permutation Generated Lysine and Tryptophan-Rich Antimicrobial Peptides with Enhanced Therapeutic Index” (Antibiotics, 2025).
Like-named read-outs stand apart in the source and are kept apart here.

How the values were obtained:
S. aureus ATCC 6538 = system: S. aureus ATCC 6538
Procedure: (§1) The antibacterial and salt-resistant activity of the peptides was tested using Escherichia coli (ATCC 25922), Pseudomonas aeruginosa Migula (ATCC 27853), Acinetobacter sp. (BCRC number 14B0091, BCRC number 14B0097, and BCRC number 14B0100), and Staphylococcus aureus sp. strains (ATCC 25923, ATCC 33591, ATCC 33592, ATCC 33593, and ATCC 6538). All bacteria were obtained from the Food Industry Research and Development Institute (Hsinchu, Taiwan) and cultured in sterilized Müller-Hinton (MH) broth at 37 °C and 200 rpm for 8 h. The inoculum concentrations were determined by measuring the optical density at 600 nm (OD 600 = 1, approximately 10^8 CFU/mL) using an Ultrospec 2100 pro UV-Visible spectrophotometer (Biochrom Ltd., Cambridge, UK) after 8 h of culture.
(§2) The antibacterial activities of the peptides in Müller-Hinton (MH) broth and modified LYM broth were determined using the standard broth microdilution method as per Clinical and Laboratory Standards Institute (CLSI) guidelines. The LYM broth was prepared with specific components and adjusted to different conditions, including varying concentrations of NaCl and MgCl2, and different pH levels. To prepare the LYM broth, 5.4 mM KCl, 5.6 mM Na2HPO4, 0.5 mM MgSO4, and 1.0 mM sodium citrate were added. Additionally, 0.4 mg of ZnCl2, 2.0 mg of FeCl3·6H2O, 0.1 mg of CuSO4·5H2O, 0.1 mg of MnSO4·H2O, 0.1 mg of Na2B4O7∙10H2O, 700 mg of amino acid mixtures without tryptophan (Takara Bio Inc., San Jose, CA, USA), and 20 mg of L-tryptophan were added per liter of medium. The pH was adjusted to 7.4, and a vitamin mixture (100X, Sigma) and glucose concentration of 2% were added. For different conditions of LYM broth, NaCl concentrations of 300, 200, 150, and 50 mM, MgCl2 concentrations of 2.5, 1.5, and 0.5 mM, and pH levels of 6.5, 5.5, and 4.5 were adjusted. Bacterial strains were incubated in MH broth overnight, regrown, and diluted to a final concentration of 5 × 10^5 CFU/mL. Peptides were added to each well at final concentrations of 50, 25, 12.5, 6.25, 3.13, 1.56, and 0.78 µg/mL, and 99 µL of diluted microbes was loaded into each well of a polypropylene 96-well plate. […] The Morpheus HeatMap software (https://software.broadinstitute.org/morpheus/) was used to display MIC values on a color scale. All experiments were independently repeated three times.

[1] = system: A. baumannii 14B0097 (Acinetobacter sp., BCRC number 14B0097)
Procedure: as §1, §2

Gram-positive bacteria = test: Geometric mean MIC and therapeutic index, Gram-positive bacteria; assay type: cell-based; settings: Gram-positive bacteria; for GM G+ (geometric mean of the MIC values): MH broth, MIC >50 µg/mL counted as 100 µg/mL; for Therapeutic Index (TI) G+: HC10/GM
Procedure: (§3) In this study, we aimed to investigate the potential of W5K series peptides for therapeutic use. To evaluate their efficacy for antibacterial therapy, we used the Therapeutic Index (TI) as a measure of their cell selectivity. The TI was calculated as the ratio of the concentration causing 10% hemolysis of human red blood cells (HC10) to the geometric mean minimum inhibitory concentration (GM) of the peptides against both Gram-negative and Gram-positive bacteria. This parameter was used to quantitatively assess the balance between antibacterial potency and cytotoxicity among the W5K derivatives.
as §2

Gram-negative bacteria = test: Geometric mean MIC and therapeutic index, Gram-negative bacteria; assay type: cell-based; settings: Gram-negative bacteria; for GM G− (geometric mean of the MIC values): MH broth, MIC >50 µg/mL counted as 100 µg/mL; for Therapeutic Index (TI) G−: HC10/GM
Procedure: as §3, §2

S. aureus ATCC 33592 = system: S. aureus ATCC 33592
Procedure: as §1
as §2, with “For different conditions of LYM broth, NaCl concentrations of 300, 200, 150, and 50 mM, MgCl2 concentrations of 2.5, 1.5, and 0.5 mM, and pH levels of 6.5, 5.5, and 4.5 were adjusted.” left out

[2] = LYM broth, 0 mM NaCl, 16 h, 37 °C
[3] = LYM broth, 50 mM NaCl, 16 h, 37 °C
[4] = LYM broth, 100 mM NaCl, 16 h, 37 °C
[5] = LYM broth, 200 mM (NaCl), 16 h, 37 °C
[6] = LYM broth, 300 mM (NaCl), 16 h, 37 °C
[7] = MH broth, 5 × 10^5 CFU/mL, 16 h, 37 °C, repeated three times

Substance	MIC (S. aureus ATCC 6538; [2])	MIC (S. aureus ATCC 6538; LYM broth, 0.5 mM MgCl2)	MIC (S. aureus ATCC 6538; LYM broth, 1.5 mM MgCl2)	MIC (S. aureus ATCC 6538; LYM broth, 2.5 mM MgCl2)	MIC (S. aureus ATCC 6538; [3])	MIC (S. aureus ATCC 6538; [4])	MIC (S. aureus ATCC 6538; [5])	MIC (S. aureus ATCC 6538; [6])	MIC (S. aureus ATCC 6538; LYM broth, pH 4.5)	MIC (S. aureus ATCC 6538; LYM broth, pH 5.5)	MIC (S. aureus ATCC 6538; LYM broth, pH 6.5)	MIC (S. aureus ATCC 6538; [7])	MIC [1, 2]	MIC ([1]; LYM broth, 0.5 mM MgCl2)	MIC ([1]; LYM broth, 1.5 mM MgCl2)	MIC ([1]; LYM broth, 2.5 mM MgCl2)	MIC [1, 3]	MIC [1, 4]	MIC [1, 5]	MIC [1, 6]	further results
Ac-KWLAKKKKWRKWL-NH2 [Peptide W5K07]	6.25 µg/mL	3.13 µg/mL	6.25 µg/mL	6.25 µg/mL	12.5 µg/mL	12.5 µg/mL	50 µg/mL	>50 µg/mL	6.25 µg/mL	6.25 µg/mL	3.13 µg/mL	>50 µg/mL	3.13 µg/mL	3.13 µg/mL	3.13 µg/mL	3.13 µg/mL	6.25 µg/mL	12.5 µg/mL	50 µg/mL	>50 µg/mL	MIC ([1]; LYM broth, pH 4.5): 3.13 µg/mL; MIC ([1]; LYM broth, pH 5.5): 3.13 µg/mL; MIC ([1]; LYM broth, pH 6.5): 3.13 µg/mL; MIC [1, 7]: 12.5 µg/mL; GM G+ (geometric mean of the MIC values) (Gram-positive bacteria): 87.1 µg/mL; Therapeutic Index (TI) G+ (Gram-positive bacteria): 1.2; GM G− (geometric mean of the MIC values) (Gram-negative bacteria): 21.8 µg/mL; Therapeutic Index (TI) G− (Gram-negative bacteria): 5.0; MIC (S. aureus ATCC 33592; [2]): 25 µg/mL; MIC (S. aureus ATCC 33592; LYM broth, 0.5 mM MgCl2): 25 µg/mL; MIC (S. aureus ATCC 33592; LYM broth, 1.5 mM MgCl2): 25 µg/mL; MIC (S. aureus ATCC 33592; LYM broth, 2.5 mM MgCl2): 25 µg/mL; MIC (S. aureus ATCC 33592; [3]): 25 µg/mL; MIC (S. aureus ATCC 33592; [4]): 50 µg/mL; MIC (S. aureus ATCC 33592; [5]): >50 µg/mL; MIC (S. aureus ATCC 33592; [6]): >50 µg/mL; MIC (S. aureus ATCC 33592; LYM broth, pH 4.5): 25 µg/mL; MIC (S. aureus ATCC 33592; LYM broth, pH 5.5): 25 µg/mL; MIC (S. aureus ATCC 33592; LYM broth, pH 6.5): 12.5 µg/mL; MIC (S. aureus ATCC 33592; [7]): >50 µg/mL
Ac-RKWLKWLAKKKKW-NH2 [Peptide W5K03]	1.56 µg/mL	3.13 µg/mL	3.13 µg/mL	6.25 µg/mL	3.13 µg/mL	6.25 µg/mL	12.5 µg/mL	25 µg/mL	6.25 µg/mL	3.13 µg/mL	3.13 µg/mL	25 µg/mL	1.56 µg/mL	3.13 µg/mL	3.13 µg/mL	3.13 µg/mL	3.13 µg/mL	3.13 µg/mL	6.25 µg/mL	25 µg/mL	MIC ([1]; LYM broth, pH 4.5): 3.13 µg/mL; MIC ([1]; LYM broth, pH 5.5): 3.13 µg/mL; MIC ([1]; LYM broth, pH 6.5): 3.13 µg/mL; MIC [1, 7]: 6.25 µg/mL; GM G+ (geometric mean of the MIC values) (Gram-positive bacteria): 66.0 µg/mL; Therapeutic Index (TI) G+ (Gram-positive bacteria): 1.6; GM G− (geometric mean of the MIC values) (Gram-negative bacteria): 16.5 µg/mL; Therapeutic Index (TI) G− (Gram-negative bacteria): 6.6; MIC (S. aureus ATCC 33592; [2]): 25 µg/mL; MIC (S. aureus ATCC 33592; LYM broth, 0.5 mM MgCl2): 25 µg/mL; MIC (S. aureus ATCC 33592; LYM broth, 1.5 mM MgCl2): 25 µg/mL; MIC (S. aureus ATCC 33592; LYM broth, 2.5 mM MgCl2): 25 µg/mL; MIC (S. aureus ATCC 33592; [3]): 25 µg/mL; MIC (S. aureus ATCC 33592; [4]): 50 µg/mL; MIC (S. aureus ATCC 33592; [5]): >50 µg/mL; MIC (S. aureus ATCC 33592; [6]): >50 µg/mL; MIC (S. aureus ATCC 33592; LYM broth, pH 4.5): 25 µg/mL; MIC (S. aureus ATCC 33592; LYM broth, pH 5.5): 12.5 µg/mL; MIC (S. aureus ATCC 33592; LYM broth, pH 6.5): 12.5 µg/mL; MIC (S. aureus ATCC 33592; [7]): >50 µg/mL
